This is an account of results in patent publication US20250009706A1, “COMPOSITIONS AND METHODS FOR TREATING OPIOID DEPENDENCE AND WITHDRAWAL” (CASE WESTERN RESERVE UNIVERSITY, priority 2021, published 2025).

SMILES strings stand for the structures.

One test has as its system morphine dependent rats. The test is described as follows: Naloxone-precipitated withdrawal responses in morphine dependent rats. The class given is in vivo, rat. As to the method: Rats received a depot subcutaneous injection of morphine (150 mg/kg) with or without continuous infusion of D-CYSee (20 μmol/kg/hour, IV) and one day later the rats received an intraperitoneal injection of naloxone HCl (1.5 mg/kg) to elicit withdrawal responses.

Test [1] concerns morphine-exposed mouse pups. Nature of the test: Neonatal opioid withdrawal syndrome (NOWS): naloxone-precipitated somatic signs in morphine-exposed mouse pups. The class given is in vivo. Conditions: D-CYSee 30 mg/kg s.c. given prior to naloxone 1.0 mg/kg. As to the method: FIG. 2 illustrates a schematic timeline of an assay of neonatal morphine exposure of female mice for determining neonatal opioid withdrawal syndrome (NOWS). Female mice are implanted with osmotic mini-pumps containing 20 mg/kg/day morphine sulfate and mated. Offspring are injected twice daily with 10 mg/kg morphine for 14 days.
FIG. 4 illustrates a graph showing D-CYSee modulates NOWS. […] D-CYSee (30 mg/kg s.c.) given prior to naloxone (1.0 mg/kg) reduces all somatic signs of withdrawal except for jumping behavior, which is enhanced.

Where [2] appears, read: rats, D-CYSee 20 μmol/kg/hour IV, naloxone HCl 1.5 mg/kg i.p.

Regarding `CCOC(=O)[C@H](N)CS` [D-CYSee, D-cysteine ethyl ester], the withdrawal responses result with morphine dependent rats (morphine 150 mg/kg depot s.c., D-CYSee 20 μmol/kg/hour IV continuous infusion, naloxone HCl 1.5 mg/kg i.p. one day later) was “markedly diminishes”. Also, in the test on morphine dependent rats (setting [2]), the “change in mean arterial blood pressure” value is on record as “attenuated”, the circling behavior entry was “attenuated”, the episodes of apneas result is reported as “attenuated” and the “episodes of fore-paw licking” value is given as “attenuated”. Also, in the test with morphine dependent rats (setting [2]), the episodes of sneezing result was “attenuated”, the jumping behavior result was “attenuated” and the rearing behavior entry is “attenuated”. In test [1], the body tremors result is on record as “reduces”, the “jumps (jumping behavior)” value is “enhanced”, the paw tremors result is “reduces” and the wall climbs entry is “reduces”.
